Experimental findings from patent US8822517B2, “Arylosulfonamides for the treatment of CNS diseases” (Adamed SP. Z O.O., priority 2010, dated 2014) are described below.

One assay has as its target dopaminergic D2 receptor (Homo sapiens, UniProt P14416). Description: Binding assay D2S (h), [3H]methyl-spiperone, HEK-293 cells. Conditions: for inhibition at 1 µM: read-out: D2 [%]. Further details: expressed in transfected cells; host or cells: HEK-293 cells. Summed up: (§1)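 Scintillation counting detects receptor-bound radioligand. Compound tested at 1×10^−6 M.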
The target of assay [1] is serotoninergic 5-HT7 receptor (Homo sapiens, UniProt P34969). Put plainly: Binding assay 5-HT7 (h), [3H]LSD, CHO cells. Further details: expressed in transfected cells; host or cells: CHO cells. Conditions: for inhibition at 1 µM: read-out: 5-HT7. Summed up:
as §1

For assay [2], the target named is serotoninergic 5-HT2A receptor (Homo sapiens, UniProt P28223). Description: Binding assay 5-HT2A (h), [3H]ketanserin, HEK-293 cells. Conditions: for inhibition at 1 µM: read-out: 5-HT2A. The arrangement: expressed in transfected cells; host or cells: HEK-293 cells. Summed up: as §1
Chain of serotoninergic 5-HT2A receptor (P28223 whole entry): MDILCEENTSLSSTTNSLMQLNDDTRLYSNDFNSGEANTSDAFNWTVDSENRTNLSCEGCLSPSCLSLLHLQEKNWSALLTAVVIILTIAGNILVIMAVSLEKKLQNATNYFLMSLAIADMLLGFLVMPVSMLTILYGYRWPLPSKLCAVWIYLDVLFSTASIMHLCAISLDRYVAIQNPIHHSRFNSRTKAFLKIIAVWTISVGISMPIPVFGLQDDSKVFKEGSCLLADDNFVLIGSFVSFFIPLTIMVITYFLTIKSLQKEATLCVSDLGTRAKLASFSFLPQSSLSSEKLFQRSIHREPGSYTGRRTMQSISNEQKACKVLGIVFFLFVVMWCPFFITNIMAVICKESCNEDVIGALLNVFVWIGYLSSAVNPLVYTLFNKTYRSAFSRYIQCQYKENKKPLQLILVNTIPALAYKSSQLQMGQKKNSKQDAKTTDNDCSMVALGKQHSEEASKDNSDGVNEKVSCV
The subject of another assay is adrenergic α1 receptor. Description: Binding assay α1 (non-selective), [3H]prazosin, rat cerebral cortex. To be noted: percent inhibition of control specific binding; compounds tested at 1×10^−6 M. Summed up:
as §1

In assay [3] the target is T1, serotonine transporter (SERT) receptor (Homo sapiens, UniProt P31645).
T1 construct: expressed in transfected cells; host or cells: CHO cells
T1 sequence (P31645 whole entry): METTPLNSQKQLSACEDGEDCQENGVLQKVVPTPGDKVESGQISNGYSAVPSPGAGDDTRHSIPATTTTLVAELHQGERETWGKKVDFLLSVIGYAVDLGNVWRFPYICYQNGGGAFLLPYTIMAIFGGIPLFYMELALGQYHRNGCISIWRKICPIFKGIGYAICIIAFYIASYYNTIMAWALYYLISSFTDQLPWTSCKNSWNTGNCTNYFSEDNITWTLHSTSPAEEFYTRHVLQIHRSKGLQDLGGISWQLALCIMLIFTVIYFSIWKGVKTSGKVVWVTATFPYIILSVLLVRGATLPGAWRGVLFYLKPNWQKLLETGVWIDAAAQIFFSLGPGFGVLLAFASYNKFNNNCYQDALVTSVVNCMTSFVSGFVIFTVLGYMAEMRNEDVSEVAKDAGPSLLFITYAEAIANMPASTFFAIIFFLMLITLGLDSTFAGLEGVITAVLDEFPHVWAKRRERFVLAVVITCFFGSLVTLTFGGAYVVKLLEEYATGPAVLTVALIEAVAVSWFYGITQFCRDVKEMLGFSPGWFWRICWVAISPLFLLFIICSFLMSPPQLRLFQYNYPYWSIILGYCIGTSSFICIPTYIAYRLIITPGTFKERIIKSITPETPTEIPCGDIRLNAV
Put plainly: Binding assay SERT (h), [3H]imipramine, CHO cells. Conditions: for inhibition at 1 µM: read-out: SERT [%]. A digest of the protocol: as §1

Assay [4] has as its target serotoninergic 5-HT6 receptor (Homo sapiens, UniProt P50406). Description: Binding assay 5-HT6 (h), [3H]LSD, CHO cells. Conditions: for inhibition at 1 µM: read-out: 5-HT6. Further details: expressed in transfected cells; host or cells: CHO cells. A digest of the protocol:
as §1

Assay [5] concerns the target T2, serotoninergic 5-HT1A receptor (Homo sapiens, UniProt P08908).
T2 sequence (P08908 1-422): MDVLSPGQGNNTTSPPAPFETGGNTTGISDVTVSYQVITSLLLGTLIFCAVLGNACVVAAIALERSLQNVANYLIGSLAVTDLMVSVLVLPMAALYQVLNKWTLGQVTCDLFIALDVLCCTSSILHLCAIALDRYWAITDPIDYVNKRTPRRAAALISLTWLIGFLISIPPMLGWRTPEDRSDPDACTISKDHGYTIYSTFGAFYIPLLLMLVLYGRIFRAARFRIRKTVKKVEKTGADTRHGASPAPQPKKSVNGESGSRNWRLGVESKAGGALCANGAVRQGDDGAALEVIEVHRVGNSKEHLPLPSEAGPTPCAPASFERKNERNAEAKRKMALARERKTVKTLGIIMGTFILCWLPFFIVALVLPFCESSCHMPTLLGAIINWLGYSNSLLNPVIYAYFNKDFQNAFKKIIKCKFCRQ
Description: Binding assay 5-HT1A (h), [3H]8-OH-DPAT, HEK-293 cells. The arrangement: expressed in transfected cells; host or cells: HEK-293 cells. To be noted: for inhibition at 1 µM: read-out: 5-HT1A. Summed up:
as §1

For the next assay, the target named is dopaminergic D3 receptor (Homo sapiens, UniProt P35462). Put plainly: Binding assay D3 (h), [3H]methyl-spiperone, CHO cells. Further details: expressed in transfected cells; host or cells: CHO cells. Conditions: for inhibition at 1 µM: read-out: D3 [%]. Summed up: as §1
Chain of dopaminergic D3 receptor (P35462 whole entry): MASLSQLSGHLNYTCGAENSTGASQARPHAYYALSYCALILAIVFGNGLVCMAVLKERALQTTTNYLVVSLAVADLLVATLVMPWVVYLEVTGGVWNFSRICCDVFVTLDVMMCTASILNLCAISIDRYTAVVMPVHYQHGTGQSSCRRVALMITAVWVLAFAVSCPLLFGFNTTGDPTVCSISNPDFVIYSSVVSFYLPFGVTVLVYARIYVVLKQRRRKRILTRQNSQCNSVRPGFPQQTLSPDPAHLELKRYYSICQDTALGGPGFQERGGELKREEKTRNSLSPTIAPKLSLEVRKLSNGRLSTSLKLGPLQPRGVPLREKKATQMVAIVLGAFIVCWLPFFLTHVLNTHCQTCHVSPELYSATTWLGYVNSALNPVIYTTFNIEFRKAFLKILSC
Setting [6] is: percent inhibition of control specific binding, compounds tested at 1×10^−6 M.

Chain of dopaminergic D2 receptor (P14416 1-414 isoform P14416-2): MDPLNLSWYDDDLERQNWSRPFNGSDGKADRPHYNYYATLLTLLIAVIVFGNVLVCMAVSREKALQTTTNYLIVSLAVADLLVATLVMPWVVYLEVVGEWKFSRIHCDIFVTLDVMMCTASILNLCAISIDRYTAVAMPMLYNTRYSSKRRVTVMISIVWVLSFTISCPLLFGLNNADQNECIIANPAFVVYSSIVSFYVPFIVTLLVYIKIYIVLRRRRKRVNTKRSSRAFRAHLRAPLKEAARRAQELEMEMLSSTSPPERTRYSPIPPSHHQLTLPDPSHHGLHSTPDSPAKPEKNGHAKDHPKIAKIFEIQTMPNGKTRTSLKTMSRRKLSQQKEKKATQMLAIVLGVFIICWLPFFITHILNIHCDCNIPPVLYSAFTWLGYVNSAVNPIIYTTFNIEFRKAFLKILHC
Chain of serotoninergic 5-HT6 receptor (P50406 whole entry): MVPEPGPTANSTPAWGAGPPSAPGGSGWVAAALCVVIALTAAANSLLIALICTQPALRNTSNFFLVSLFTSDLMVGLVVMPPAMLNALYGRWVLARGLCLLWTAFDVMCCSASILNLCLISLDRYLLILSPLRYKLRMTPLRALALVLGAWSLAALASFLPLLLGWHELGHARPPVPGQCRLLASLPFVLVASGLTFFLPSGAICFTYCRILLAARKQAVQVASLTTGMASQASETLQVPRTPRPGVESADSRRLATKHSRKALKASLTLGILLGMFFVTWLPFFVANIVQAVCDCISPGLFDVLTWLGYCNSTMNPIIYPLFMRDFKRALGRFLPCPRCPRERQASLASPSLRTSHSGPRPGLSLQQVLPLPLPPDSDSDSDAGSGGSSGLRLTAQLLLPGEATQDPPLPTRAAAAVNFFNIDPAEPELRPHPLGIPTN
Chain of serotoninergic 5-HT7 receptor (P34969 whole entry): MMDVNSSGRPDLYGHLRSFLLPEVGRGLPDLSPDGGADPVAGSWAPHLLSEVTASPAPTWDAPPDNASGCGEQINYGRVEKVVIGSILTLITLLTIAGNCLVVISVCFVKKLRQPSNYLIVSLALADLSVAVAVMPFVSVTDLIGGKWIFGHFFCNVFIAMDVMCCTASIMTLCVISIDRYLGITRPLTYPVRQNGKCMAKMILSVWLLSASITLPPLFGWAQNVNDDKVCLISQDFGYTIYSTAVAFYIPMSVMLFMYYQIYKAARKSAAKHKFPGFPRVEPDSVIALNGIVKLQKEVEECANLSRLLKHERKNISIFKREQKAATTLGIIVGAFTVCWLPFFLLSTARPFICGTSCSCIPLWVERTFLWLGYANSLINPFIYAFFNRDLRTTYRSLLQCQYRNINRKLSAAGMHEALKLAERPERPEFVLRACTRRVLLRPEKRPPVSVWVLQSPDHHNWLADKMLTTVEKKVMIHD

Regarding `O=S(=O)(NCCCCN1CCN(c2nsc3ccccc23)CC1)c1cnc2ccccn12` [Compound 246, N-[4-[4-(1,2-Benzothiazol-3-yl)piperazin-1-yl]butyl]imidazo[1,2-a]pyridine-3-sulphonamide], the inhibition at 1 µM was found to be 98% at dopaminergic D2 receptor; 86% in assay [1]; 88% in assay [2]; 31% in assay [3]; 49% in assay [4]; 91% in assay [5]. Besides, the inhibition at 1 µM on dopaminergic D3 receptor was 86%. Besides, the “α1 [%]” value with adrenergic α1 receptor is given as 99%.

For `O=S(=O)(NCCCCN1CCN(c2nsc3ccccc23)CC1)c1cccs1` [Compound 238, N-[4-[4-(1,2-Benzothiazol-3-yl)piperazin-1-yl]butyl]thiophene-2-sulphonamide], the inhibition at 1 µM on dopaminergic D2 receptor worked out at 87%; in assay [1], 88%; in assay [2] it was 95%; in assay [3], 13%; in assay [4], 74%; in assay [5], 90%. Moreover, on dopaminergic D3 receptor, the inhibition at 1 µM was 85%. Moreover, in the assay with adrenergic α1 receptor, the “α1 [%]” value is recorded as 103%.

With `O=S(=O)(NCCCCN1CCN(c2nsc3ccccc23)CC1)c1ccc(Cl)s1` [Compound 195, N-[4-[4-(1,2-Benzothiazol-3-yl)piperazin-1-yl]butyl]-5-chloro-thiophene-2-sulphonamide], the inhibition at 1 µM on dopaminergic D2 receptor is 99%; in assay [1] it was 98%; in assay [2], 91%; in assay [3] it was -3%; in assay [4] it was 60%; in assay [5], 89%. Moreover, the inhibition at 1 µM on dopaminergic D3 receptor was 89%. Further, the “α1 [%]” value with adrenergic α1 receptor was determined as 96%.

With `O=C1COc2c(cccc2N2CCN(CCCCNS(=O)(=O)c3cccc(F)c3)CC2)N1` [Compound 211, 3-Fluoro-N-[4-[4-(3-oxo-4H-1,4-benzoxazin-8-yl)piperazin-1-yl]butyl]benzenesulphonamide], the inhibition at 1 µM on dopaminergic D2 receptor was 81%; in assay [1] it was 81%; in assay [2] it was 32%; in assay [3], 33%; in assay [4], 32%; in assay [5], 86%. Also, the inhibition at 1 µM on dopaminergic D3 receptor was 102%. In addition, the “α1 [%]” value in the assay with adrenergic α1 receptor amounted to 80%.

For `O=S(=O)(NCCCN1CCN(c2cccc3c2OCCO3)CC1)c1ccc2cc(Cl)ccc2c1` [Compound 407, 6-Chloro-N-[3-[4-(2,3-dihydro-1,4-benzodioxin-5-yl)piperazin-1-yl]propyl]naphthalene-2-sulphonamide], the inhibition at 1 µM on dopaminergic D2 receptor is 58%; in assay [1], 102%; in assay [2] it was 50%; in assay [3], -2%; in assay [4] it was 37%; in assay [5] it was 88%. Also, on dopaminergic D3 receptor, the inhibition at 1 µM is 84%. In addition, the “α1 [%]” value with adrenergic α1 receptor was found to be 72%.

For “N-[4-[4-(1H-Indol-4-yl)piperazin-1-yl]butyl]-1,3-benzodioxole-5-sulphonamide [Compound 365]”, on dopaminergic D2 receptor (setting [6]), the “D2 [%]” value is listed as 99%. The compound also displayed a 5-HT7 in assay [1] (setting [6]) of 95%. The compound further displayed a 5-HT2A in assay [2] (setting [6]) of 55%. Besides, the “α1 [%]” value in the assay on adrenergic α1 receptor is listed as 100%. Further, the “SERT [%]” value in assay [3] (setting [6]) is 25%. In assay [4] (setting [6]), this compound gave a 5-HT6 of 67%. This compound also gave a 5-HT1A in assay [5] (setting [6]) of 90%. Further, the “D3 [%]” value at dopaminergic D3 receptor (setting [6]) stood at 100%.

In the case of `O=S(=O)(NCCCN1CCC(c2noc3cc(F)ccc23)CC1)c1ccc(-c2ccccc2)cc1` [Compound 112, N-[3-[4-(6-Fluoro-1,2-benzoxazol-3-yl)piperidin-1-yl]propyl]-4-phenylbenzenesulphonamide], the inhibition at 1 µM was 103% on dopaminergic D2 receptor; 95% in assay [1]; 93% in assay [2]; -17% in assay [3]; 94% in assay [4]; 20% in assay [5]. Further, the inhibition at 1 µM at dopaminergic D3 receptor came to 98%. Moreover, the “α1 [%]” value in the assay with adrenergic α1 receptor was determined as 99%.

Turning to `O=S(=O)(NCCCCN1CCN(c2cccc3c2OCCO3)CC1)c1ccc2cn[nH]c2c1` [Compound 402, N-[4-[4-(2,3-Dihydro-1,4-benzodioxin-5-yl)piperazin-1-yl]butyl]-1H-indazole-6-sulphonamide], the inhibition at 1 µM on dopaminergic D2 receptor was determined as 68%; in assay [1], 100%; in assay [2], 76%; in assay [3], 16%; in assay [4], 1%; in assay [5] it was 102%. For the same compound, the inhibition at 1 µM at dopaminergic D3 receptor was 89%. In addition, the “α1 [%]” value in the assay with adrenergic α1 receptor was 94%.

As to `O=C1Cc2cc(S(=O)(=O)NCCCCN3CCC(c4noc5cc(F)ccc45)CC3)ccc2N1` [Compound 324, N-[4-[4-(6-Fluoro-1,2-benzoxazol-3-yl)piperidin-1-yl]butyl]-2-oxo-indoline-5-sulphonamide], the inhibition at 1 µM on dopaminergic D2 receptor came out at 105%; in assay [1], 78%; in assay [2], 104%; in assay [3], 37%; in assay [4], 78%; in assay [5], 56%. On dopaminergic D3 receptor, the inhibition at 1 µM worked out at 103%. In addition, in the assay with adrenergic α1 receptor, the “α1 [%]” value worked out at 103%.

`COc1cccc(S(=O)(=O)NCCCN2CCN(c3nsc4ccccc34)CC2)c1` [Compound 255, N-[3-[4-(1,2-Benzothiazol-3-yl)piperazin-1-yl]propyl]-3-methoxybenzenesulphonamide]: the inhibition at 1 µM on dopaminergic D2 receptor was found to be 98%; in assay [1], 91%; in assay [2] it was 84%; in assay [3] it was 29%; in assay [4] it was 68%; in assay [5], 93%. The inhibition at 1 µM at dopaminergic D3 receptor came to 82%. Also, the “α1 [%]” value with adrenergic α1 receptor is reported as 92%.

`O=S(=O)(NCCCN1CCN(c2nsc3ccccc23)CC1)c1c[nH]c2ncccc12` [Compound 270, N-[3-[4-(1,2-Benzothiazol-3-yl)piperazin-1-yl]propyl]-1H-pyrrolo[2,3-b]pyridine-3-sulphonamide]: the inhibition at 1 µM at dopaminergic D2 receptor stood at 74%; in assay [1] it was 82%; in assay [2], 89%; in assay [3] it was 12%; in assay [4], 70%; in assay [5] it was 75%. Besides, at dopaminergic D3 receptor, the inhibition at 1 µM came to 82%. In addition, the “α1 [%]” value in the assay on adrenergic α1 receptor came out at 88%.

In the case of `O=S(=O)(NCCCCN1CCN(c2noc3ccccc23)CC1)c1cccc(C(F)(F)F)c1` [Compound 91, N-[4-[4-(1,2-Benzoxazol-3-yl)piperazin-1-yl]butyl]-3-(trifluoromethyl)benzenesulphonamide], the inhibition at 1 µM at dopaminergic D2 receptor stood at 92%; in assay [1], 99%; in assay [2] it was 95%; in assay [3], 2%; in assay [4] it was 83%; in assay [5] it was 40%. Also, the inhibition at 1 µM at dopaminergic D3 receptor amounted to 70%. In addition, the “α1 [%]” value with adrenergic α1 receptor was found to be 99%.

Take `O=S(=O)(NCCCCN1CCN(c2noc3ccccc23)CC1)c1ccc(F)c(Cl)c1` [Compound 276, N-[4-[4-(1,2-Benzoxazol-3-yl)piperazin-1-yl]butyl]-3-chloro-4-fluorobenzenesulphonamide]: the inhibition at 1 µM on dopaminergic D2 receptor came to 95%; in assay [1] it was 87%; in assay [2], 87%; in assay [3], 3%; in assay [4], 78%; in assay [5] it was 51%. Moreover, at dopaminergic D3 receptor, the inhibition at 1 µM is 69%. In addition, the “α1 [%]” value in the assay on adrenergic α1 receptor was determined as 95%.

In the case of `O=S(=O)(NCCCN1CCN(c2cccc3c2OCCO3)CC1)c1ccc(-c2ccccc2)cc1` [Compound 415, N-[3-[4-(2,3-Dihydro-1,4-benzodioxin-5-yl)piperazin-1-yl]propyl]-4-phenylbenzenesulphonamide], the inhibition at 1 µM was 58% on dopaminergic D2 receptor; 92% in assay [1]; 25% in assay [2]; -5% in assay [3]; 15% in assay [4]; 96% in assay [5]. Further, on dopaminergic D3 receptor, the inhibition at 1 µM is 76%. Also, the “α1 [%]” value in the assay with adrenergic α1 receptor is given as 78%.
